Consider 3 compounds from ChEMBL document CHEMBL5052824, “Novel sesquiterpenoid analogs” (2020).

The structures appear in SMILES notation. Calls of active or inactive are those of the source. No cut-off for these calls is given here.

A short description of experiment [1]: Upregulation of POLE expression in POLE3 knocked down human HeLa cells and measured as fold change after 6 hrs. It counts as functional.
Experiment [2] has as its system HeLa. Kind of experiment: Downregulation of GIT2 expression in POLE3 knocked down human HeLa cells and measured after 6 hrs. Type of experiment: functional, cell-based.
Experiment [3] deals with HeLa. Kind of experiment: Induction of DNA damage in human HeLa cells at 30 uM assessed as increase in gamma-H2AX level and measured by DAPI staining method relative to control. It counts as functional, cell-based.
The subject of experiment [4] is HeLa. Kind of experiment: Downregulation of GEMIN2 expression in POLE3 knocked down human HeLa cells and measured after 6 hrs. Type of experiment: functional, cell-based.
The subject of experiment [5] is HeLa. Kind of experiment: Induction of DNA damage in POLE3 knocked down human HeLa cells at 30 uM assessed as increase in gamma-H2AX level in presence of 30 uM etoposide and measured by DAPI staining method relative to control. Type of experiment: functional, cell-based.
Experiment [6] has as its system HeLa. Kind of experiment: Induction of DNA damage in human HeLa cells at 30 uM assessed as increase in gamma-H2AX level in presence of 30 uM etoposide and measured by DAPI staining method relative to control. It counts as functional, cell-based.
The subject of experiment [7] is HeLa. Kind of experiment: Downregulation of PEA15 expression in POLE3 knocked down human HeLa cells and measured after 6 hrs. It counts as functional, cell-based.
For experiment [8], the target named is T1, DNA polymerase epsilon subunit 3 (Homo sapiens) (UniProt Q9NRF9).
T1 sequence (whole entry): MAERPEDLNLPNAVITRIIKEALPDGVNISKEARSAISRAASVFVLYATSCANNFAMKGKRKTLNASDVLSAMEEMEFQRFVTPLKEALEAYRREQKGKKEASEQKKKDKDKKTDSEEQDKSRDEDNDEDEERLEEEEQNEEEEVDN
Kind of experiment: Binding affinity towards wild-type POLE3 overexpressed in human 293T cells measured after 1 hr by SDS-PAGE analysis. It counts as cell-based. To be noted: HEK293T.

For experiment [9], the system named is HeLa. Kind of experiment: Downregulation of DNA ligase 3 expression in POLE3 knocked down human HeLa cells and measured after 6 hrs. Type of experiment: functional, cell-based.
Experiment [10] relates to MDA-MB-231. Kind of experiment: Binding affinity to cysteine residue of protein in human MDA-MB-231 lysates at 30 uM incubated for 1 hr and measured in presence of cysteine-reactive reagent JW-RF-001 by SDS-PAGE analysis. It counts as subcellular.
In experiment [11] the test system is MDA-MB-231. Kind of experiment: Binding affinity to cysteine residues of protein in human MDA-MB-231 lysates at 30 uM incubated for 1 hr and measured by SDS-PAGE analysis. It counts as subcellular.

`C=C1C[C@@]2(C[C@H](C)[C@H]3CC=C(C)C(=O)[C@@H]3O2)OC1=O`: the “fold change (FC)” value in [1] is given as 4. The result with HeLa [2], with HeLa [4], in the experiment with HeLa [5], in the experiment with HeLa [6], in the experiment with HeLa [7] and in the experiment with HeLa [9] was Active. Moreover, in the experiment with HeLa [3], the result was inactive. Besides, the Kinact in experiment [8] worked out at 0.27 min⁻¹.

As to `C=C1C[C@@]2(C[C@H](C)[C@H]3CC=C(CN=[N+]=[N-])C(=O)[C@@H]3O2)OC1=O`, the outcome in the experiment on MDA-MB-231 [10] was inactive. The outcome in the experiment on MDA-MB-231 [11] was Active.

As to `COc1cc([C@@H]2c3cc4c(cc3[C@@H](O[C@@H]3O[C@@H]5CO[C@@H](C)O[C@H]5[C@H](O)[C@H]3O)[C@H]3COC(=O)[C@H]23)OCO4)cc(OC)c1O`, in the experiment on HeLa [3], the result was Active.
